Test results as given in ChEMBL document CHEMBL1121775, “Synthesis and antimalarial effects of N2-aryl-N4-[(dialkylamino)alkyl]- and N4-aryl-N2-[(dialkylamino)alkyl]-2,4-quinazolinediamines” (J Med Chem, 1981).
Values joined by “and” are separate entries in the source; they are usually repeats but may differ in a detail not shown here. Equal values may be shown once.

Experiments:
[1] = test system: Plasmodium berghei; test: Antimalarial activity against trophozoite-induced Plasmodium berghei in mice (Mus musculus); type: functional
[2] = test system: Mus musculus; test: Number of mice cured at a dose of 160 mg/kg sc; type: functional; conditions: route subcutaneous
[3] = test system: Plasmodium berghei; test: Antimalarial effect against trophozoite-induced Plasmodium berghei in mice (Mus musculus) after 40 mg/kg subcutaneous dose; type: functional
[4] = test system: Mus musculus; test: Number of mice cured at a subcutaneous dose of 640 mg/kg.; type: functional
[5] = test system: Mus musculus; test: Number of mice cured at a dose of 320 mg/kg sc; type: functional; conditions: route subcutaneous
[6] = The ratio of SD90 of the quinine hydrochloride, to the SD90 of the test substance for the Dose of 9 mg/kg; type: functional
[7] = test system: Plasmodium berghei; test: Antimalarial activity against trophozoite-induced Plasmodium berghei in mice (Mus musculus) at 160 mg/kg subcutaneous dose; type: functional
[8] = test system: Mus musculus; test: Number of mice cured at a dose of 80 mg/kg sc; type: functional; conditions: route subcutaneous
[9] = test system: Plasmodium berghei; test: Antimalarial effect against trophozoite-induced Plasmodium berghei in mice (Mus musculus) after 20 mg/kg subcutaneous dose; type: functional
[10] = test system: Mus musculus; test: Antimalarial effect against trophozoite-induced Plasmodium berghei in mice (Mus musculus) at dosage of 80 mg/kg after subcutaneous administration; type: functional
[11] = test system: Plasmodium berghei; test: (§1) Antimalarial effect against trophozoite-induced Plasmodium berghei in mice (Mus musculus) at 640 mg/kg subcutaneous dose; type: functional; conditions: 640 mg/kg
[12] = test system: Plasmodium berghei; test: Antimalarial effect against trophozoite-induced Plasmodium berghei in mice (Mus musculus) at 160 mg/kg subcutaneous dose; type: functional
[13] = test system: Mus musculus; test: Number of mice cured at a dose of 640 mg/kg sc; type: functional; conditions: route subcutaneous
[14] = The ratio of SD90 of the quinine hydrochloride, to the SD90 of the test substance for the Dose of 120 mg/kg; type: functional
[15] = test system: Plasmodium berghei; test: Antimalarial effect against trophozoite-induced Plasmodium berghei in mice (Mus musculus) at 80 mg/kg subcutaneous dose; type: functional
[16] = test system: Plasmodium berghei; test: Antimalarial effect against trophozoite-induced Plasmodium berghei in mice (Mus musculus) at 320 mg/kg subcutaneous dose; type: functional
[17] = The ratio of SD90 of the quinine hydrochloride, to the SD90 of the test substance for the Dose of 24 mg/kg; type: functional
[18] = The ratio of SD90 of the quinine hydrochloride, to the SD90 of the test substance for the Dose of 7.8 mg/kg; type: functional
[19] = test system: Mus musculus; test: Number of mice cured at a dose of 40 mg/kg sc; type: functional; conditions: route subcutaneous
[20] = The ratio of SD90 of the quinine hydrochloride, to the SD90 of the test substance for the Dose of 0.28 mg/kg; type: functional
[21] = test system: Mus musculus; test: Number of mice cured at a subcutaneous dose of 320 mg/kg.; type: functional
[22] = test system: Mus musculus; test: Number of mice cured at a subcutaneous dose of 160 mg/kg.; type: functional
[23] = The ratio of SD90 of the quinine hydrochloride, to the SD90 of the test substance for the Dose of >37 mg/kg; type: functional
[24] = test system: Mus musculus; test: Number of toxic deaths at a dose of 640 mg/kg; type: toxicity, organism-based; design: dose 640 mg/kg; conditions: in vivo
[25] = The ratio of SD90 of the quinine hydrochloride, to the SD90 of the test substance for the Dose of 9.8 mg/kg; type: functional
[26] = test system: Mus musculus; test: Antimalarial effect against trophozoite-induced Plasmodium berghei in mice (Mus musculus) at dosage of 80 mg/kg after subcutaneous administration; No. of mice (Mus musculus) surviving after 60 days 4; type: functional
[27] = test system: Mus musculus; test: Antimalarial effect against trophozoite-induced Plasmodium berghei in mice (Mus musculus) at dosage of 160 mg/kg after subcutaneous administration; No. of mice (Mus musculus) surviving after 60 days 4; type: functional
[28] = test system: Mus musculus; test: Number of mice cured at a dose 320 mg/kg sc; type: functional; conditions: route subcutaneous
[29] = The ratio of SD90 of the quinine hydrochloride, to the SD90 of the test substance for the Dose of >147 mg/kg; type: functional
[30] = test system: Plasmodium berghei; test: as §1; type: functional

In the case of `CCN(CC)C1CCC(Nc2nc(Nc3cc(Cl)cc(Cl)c3)nc3ccccc23)CC1` (stereo in doubt; 34), the SD90 [1] was 9 mg/kg/day, the No. of cured [2] was 2 and the MST ([3]; 40 mg/kg) was 7.7 days and 7.5 days. The No. of cured [4] was 5, the No. of cured ([5]; 320 mg/kg) was 5 and 3 and the Ratio [6] was 8.3. For the same compound, the MST ([7]; 160 mg/kg) was 26.9 days and 23.4 days, the No. of cured [8] was 1 and the MST ([9]; 20 mg/kg) was 2.3 days. The MST ([10]; 80 mg/kg) was 13.4 days.
For `CCN(CC)CCNc1nc(Nc2cc(Cl)cc(Cl)c2)nc2ccccc12`, the SD90 [1] was 120 mg/kg/day, the MST [11] was 22.1 days and 20.8 days and the MST ([12]; 160 mg/kg) was 8.2 days and 9 days. The MST [9] was 0.2 days, the No. of survivals ([13]; 640 mg/kg) was 2 and 3 and the Ratio [14] was 0.6. It also gave an MST [15] of 3.2 days and an MST [16] of 12.2 days.
With `CCN(CC)CCNc1nc(Nc2ccc(Cl)c(Cl)c2)nc2ccccc12` the SD90 [1] was 24 mg/kg/day, the MST [3] was 1 days and the Ratio [17] was 3.1. It also gave an MST [12] of 7 days and a No. of survivals [13] of 5.
With `CN(C)C1CCC(Nc2nc(Nc3ccc(Cl)c(Cl)c3)nc3ccccc23)CC1` (stereo in doubt; 22) the SD90 [1] was 7.8 mg/kg/day, the No. of cured [2] was 4 and the MST ([3]; 40 mg/kg) was 4.5 days and 4.1 days. It also gave a No. of cured [5] of 4, an MST ([7]; 160 mg/kg) of 22.9 days and a Ratio [18] of 9.6. It also gave a No. of cured [8] of 3, an MST [12] of 25.9 days and an MST ([9]; 20 mg/kg) of 0.3 days. For the same compound, the MST [10] was 11.4 days and the MST ([16]; 320 mg/kg) was 25.9 days.
In the case of `CCc1nc(N)nc(N)c1-c1ccc(Cl)cc1` [PYRIMETHAMINE], the SD90 [1] was 0.28 mg/kg/day, the No. of survivals [19] was 1 and the Ratio [20] was 270. The No. of survivals ([21]; 320 mg/kg) was 2 and 3, the No. of survivals [8] was 3 and the No. of survivals [22] was 5. The MST [9] was 7.7 days and the No. of survivals ([13]; 640 mg/kg) was 1 and 2.
`c1ccc2c(NCCCN3CCCC3)nc(Nc3ccncc3)nc2c1` gave an SD90 [1] of over 37 mg/kg/day, an MST [3] of 0.3 days and a Ratio [23] of under 2. For the same compound, the MST [7] was 0.9 days and the “No. of toxic deaths” value [24] was 5 and 2.
In the case of `CN1CCCC1CCNc1nc(Nc2ccc(Cl)cc2)nc2ccccc12` (stereo unspecified), the SD90 [1] was 9.8 mg/kg/day, the MST ([3]; 40 mg/kg) was 1.1 days and 0.8 days and the No. of cured ([4]; 640 mg/kg) was 2 and 3. For the same compound, the MST [11] was 12.2 days and 22.3 days, the MST ([12]; 160 mg/kg) was 10.7 days and 10.2 days and the MST [9] was 0.8 days. The Ratio [25] was 7.6, the MST [15] was 4.4 days and the MST [16] was 14.4 days.
With `CN(C)C1CCC(Nc2nc(Nc3cc(Cl)cc(Cl)c3)nc3ccccc23)CC1` (stereo in doubt; 26) the MST [26] was 23.9 days, the MST [27] was 27.9 days and the MST ([7]; 160 mg/kg) was 19.1 days and 24.9 days. The No. of survivals [21] was 5, the No. of survivals ([22]; 160 mg/kg) was 2 and 4 and the MST ([9]; 20 mg/kg) was 3.6 days and 1.7 days. For the same compound, the No. of survivals [13] was 5, the No. of survivals [28] was 4 and the MST ([15]; 80 mg/kg) was 11.6 days and 9 days. It also gave an MST ([16]; 320 mg/kg) of 27.8 days.
For `OC1CCCN(CCCNc2nc(Nc3nc(-c4ccccc4)cs3)nc3ccccc23)C1` (stereo unspecified), the SD90 [1] was over 147 mg/kg/day, the MST [3] was 0.2 days and the Ratio [29] was under 0.5. For the same compound, the MST [30] was 0.8 days and the MST [12] was 0.4 days.
